Laboratory results: PMC7913621 (Molecules, 2021)

What was measured:
[1] = tested on: bone osteosarcoma U-2 OS; experiment: MTT cell viability assay, U-2 OS; assay type: cell-based, human; details: 72 h, median (95% Confidence Intervals)
Procedure: (§1) The following human cell lines were used in this study: (i) epidermoid carcinoma A-431 (ATCC® CRL-1555), (ii) lung carcinoma A549 (ATCC® CCL-185), (iii) colorectal carcinoma HCT116 (ATCC® CCL-247), (iv) HCT116p53^−/−, (v) glioblastoma U-87 MG (ATCC® HTB-14), (vi) glioblastoma U-251 MG (ECACC 09063001), (vii) breast adenocarcinoma MCF7 (ATCC® HTB-22), (viii) breast adenocarcinoma MDA-MB-231 (ECACC 92020424), (ix) papillomavirus-related cervical squamous cell carcinoma SKG-IIIa (RRID:CVCL_1704), (x) cervical adenocarcinoma HeLa (ATCC® CCL-2), (xi) bone osteosarcoma U-2 OS (ATCC® HTB-96), (xii) hepatocellular carcinoma HEPG2 (ATCC® HB-8065), (xiii) larynx squamous cell carcinoma BICR 18 (ECACC 06051601), (ix) kidney HEK 293T (ATCC® CRL-11268), (xv) normal lung fibroblasts MRC-5 (ATCC® CCL-171), (xvi) normal fibroblasts BJ (ATCC® CRL-2522). The HCT116p53^−/− cell line was a kind gift from professor Bert Vogelstein (John Hopkin’s University, Baltimore, MD, USA). The remaining cell lines were purchased from ATCC (Manassas, VA, USA) or Sigma-Aldrich by Merck (Darmstadt, Germany).
(§2) Cells were cultured in minimal or Dulbecco’s modified Eagle’s or Ham’s F10 medium supplemented with 10% fetal bovine serum (Gibco by Thermo Fisher Scientific, Waltham, MA, USA) and (for BICR 18) 0.4 μg/mL hydrocortizone (Sigma-Aldrich by Merck, Darmstadt, Germany) under standard culture conditions (37 °C, 5% CO2) in a humidified incubator with an atmospheric oxygen.
(§3) The viability of cells was assayed by measuring the conversion of MTT (3-(4,5-dimethylthiazol-2-yl)-2,5-diphenyltetrazolium bromide) to the formazan (the rate of this reaction is proportional to the number of surviving cells). Cells were seeded in a 96-well plate at a density of 2500–3500 cells per well, 24 h before treatment. […] MTT stock solution (Sigma-Aldrich) was added at the final concentration 0.5 mg/mL. After 4 h of incubation at 37 °C, water-insoluble formazan was dissolved in a lysis buffer containing 20% SDS, 50% DMF, 2.5% hydrochloric acid and 2.5% acetic acid. Optical densities were measured at 570 nm using a scanning multi-well spectrophotometer ([…] Detection Platform; Beckman Coulter, Brea, CA, USA). At least three independent experiments of viability were conducted.

[2] = tested on: larynx squamous cell carcinoma BICR 18; experiment: MTT cell viability assay, BICR 18; assay type: cell-based, human; details: BICR 18, MTT, 72 h, median (95% Confidence Intervals)
Procedure: as §1, §2, §3

[3] = tested on: normal lung fibroblasts MRC-5; experiment: MTT cell viability assay, MRC-5; assay type: cell-based, human; details: MRC-5, MTT, 72 h, median (95% Confidence Intervals)
Procedure: as §1, §2, §3

[4] = tested on: normal fibroblasts BJ; experiment: MTT cell viability assay, BJ; assay type: cell-based, human; details: 72 h, median (95% Confidence Intervals)
Procedure: as §1, §2, §3

[5] = tested on: hepatocellular carcinoma HEPG2; experiment: MTT cell viability assay, HEPG2; assay type: cell-based, human; details: 72 h, median (95% Confidence Intervals)
Procedure: as §1, §2, §3

[6] = tested on: epidermoid carcinoma A-431; experiment: MTT cell viability assay, A-431; assay type: cell-based, human; details: A-431, MTT, 72 h, median (95% Confidence Intervals)
Procedure: as §1, §2, §3

[7] = tested on: kidney HEK 293T; experiment: MTT cell viability assay, HEK 293T; assay type: cell-based, human; details: 72 h, median (95% Confidence Intervals)
Procedure: as §1, §2, §3

[8] = tested on: lung carcinoma A549; experiment: MTT cell viability assay, A549; assay type: cell-based, human; details: 72 h, median (95% Confidence Intervals)
Procedure: as §1, §2, §3

[9] = tested on: breast adenocarcinoma MDA-MB-231; experiment: MTT cell viability assay, MDA-MB-231; assay type: cell-based, human; details: MDA-MB-231, MTT, 72 h, median (95% Confidence Intervals)
Procedure: as §1, §2, §3

[10] = tested on: cervical squamous cell carcinoma SKG-IIIa; experiment: MTT cell viability assay, SKG-IIIa; assay type: cell-based, human; details: SKGIIIa, 72 h, median (95% Confidence Intervals)
Procedure: as §1, §2, §3

[11] = tested on: glioblastoma U-87 MG; experiment: MTT cell viability assay, U-87 MG; assay type: cell-based, human; details: 72 h, median (95% Confidence Intervals)
Procedure: as §1, §2, §3

[12] = tested on: colorectal carcinoma HCT116; experiment: MTT cell viability assay, HCT116; assay type: cell-based, human; details: median (95% Confidence Intervals)
Procedure: as §1, §2, §3

[13] = tested on: colorectal carcinoma HCT116p53^−/−; experiment: MTT cell viability assay, HCT116p53−/−; assay type: cell-based, human; details: 72 h, median (95% Confidence Intervals)
Procedure: as §1, §2, §3

[14] = tested on: breast adenocarcinoma MCF7; experiment: MTT cell viability assay, MCF7; assay type: cell-based, human; details: 72 h, median (95% Confidence Intervals)
Procedure: as §1, §2, §3

[15] = tested on: cervical adenocarcinoma HeLa; experiment: MTT cell viability assay, HeLa; assay type: cell-based, human; details: 72 h, median (95% Confidence Intervals)
Procedure: as §1, §2, §3

[16] = tested on: glioblastoma U-251 MG; experiment: MTT cell viability assay, U-251 MG; assay type: cell-based, human; details: 72 h, median (95% Confidence Intervals)
Procedure: as §1, with “The remaining cell lines were purchased from ATCC (Manassas, VA, USA) or Sigma-Aldrich by Merck (Darmstadt, Germany).” left out
The viability of cells was assayed by measuring the conversion of MTT (3-(4,5-dimethylthiazol-2-yl)-2,5-diphenyltetrazolium bromide) to the formazan (the rate of this reaction is proportional to the number of surviving cells). […] Optical densities were measured at 570 nm using a scanning multi-well spectrophotometer ([…] Detection Platform; Beckman Coulter, Brea, CA, USA). […]

[17] = molecular target: T1, recombinant human PDE5A/PDE5 protein (Homo sapiens, UniProt O76074); experiment: colorimetric PDE Activity Assay Kit (Abcam), PDE5 inhibition; assay type: biochemical; details: for IC50: 200 μM cGMP, 40 ng enzyme, 20 min at 37 °C, 4% DMSO, read-out: IC50 against human PDE5; for Ki: read-out: Ki against human PDE5
T1 construct: purchased Abcam
Procedure: A high concentration of cGMP substrate was used (200 μM) due to the moderate sensitivity of the aforementioned assay.
The inhibitory effect of the tested compounds was measured using colorimetric PDE Activity Assay Kit (Abcam, Cambridge, UK). This assay allows the quantification of 5′-nucleotide released in the reaction catalyzed by tested phosphodiesterase, PDE5, using the additional enzyme 5′-nucleotidase to cleave the mentioned product, and next, using modified Malachite Green assay, the phosphate is quantified. The assay was carried in a 96-well plate at a volume of 40 μL in an assay buffer, containing 40 ng recombinant human PDE5A/PDE5 protein (Abcam), 200 μM cGMP, 25 kU 5′-nucleotidase and serially diluted ligand to preserve 4% of DMSO. The reaction was initiated with the enzyme and kept going for 20 min at 37 °C. The reaction was stopped by adding 80 μL of Green Assay reagent. After incubation at room temperature for 30 min (to develop color proportional to phosphate content), the absorbance at 620 nm was measured with The SpectraMax iD3 Multi-Mode Microplate Reader (Molecular Devices, San Jose, CA, USA). Inhibitors concentrations varied in the range of 2 pM–200 μM. Each experiment was repeated 4–5 times and IC50 values were calculated by global fitting of the sigmoidal dose response equation implemented in Origin 9.0 package (www.originlab.com). For each experiment, control reaction with no enzyme added and without inhibitor was also performed.

| Structure (SMILES) | IC50 ([1]; Homo sapiens, U2OS) [µM] | IC50 ([6]; Homo sapiens) [µM] | IC50 ([10]; Homo sapiens) [µM] | IC50 [17] [µM] | Ki [17] [µM] | IC50 ([11]; Homo sapiens) [µM] | IC50 ([12]; Homo sapiens, HCT-116, 72 h) [µM] | IC50 ([13]; Homo sapiens) [µM] | IC50 ([14]; Homo sapiens) [µM] | IC50 ([15]; Homo sapiens) [µM] | IC50 ([9]; Homo sapiens) [µM] | IC50 ([2]; Homo sapiens) [µM] | IC50 ([5]; Homo sapiens) [µM] | IC50 ([8]; Homo sapiens) [µM] | IC50 ([7]; Homo sapiens) [µM] | IC50 ([3]; Homo sapiens, MRC5) [µM] | IC50 ([4]; Homo sapiens, Fibroblast) [µM] | further results |
| --- | --- | --- | --- | --- | --- | --- | --- | --- | --- | --- | --- | --- | --- | --- | --- | --- | --- | --- |
| N.N.[Cl][Pt][Cl] [Cisplatin, cisplatin, reference compound] | – | – | – | – | – | – | – | – | – | – | – | – | – | – | – | – | – | IC50 [1]: 7.55 µM; IC50 [2]: 1.69 µM; IC50 [3]: 3.92 µM; IC50 [4]: 5.58 µM; IC50 [5]: 7.8 µM; IC50 [6]: 1.51 µM; IC50 [7]: 6.25 µM; IC50 [8]: 27.2 µM; IC50 [9]: 22.3 µM; IC50 [10]: 4.84 µM; IC50 [11]: 4.96 µM; IC50 ([12]; 72 h): 7.44 µM; IC50 [13]: 14.1 µM; IC50 [14]: 11 µM; IC50 [15]: 13.5 µM; IC50 [16]: 2.61 µM |
| CN1CC(=O)N(Cc2cc3c(cc2Br)OCO3)[C@H](Cc2c[nH]c3ccccc23)C1=O [Compound 7a, (R)-3-((1H-indol-3-yl)methyl)-4-((6-bromobenzo[d][1,3]dioxol-5-yl)methyl)-1-methylpiperazine-2,5-dione] | 95.4 | 63.6 | 75.9 | 22 ± 12 | 0.22 ± 0.17 | 110 | 53 | 35.9 | 28.9 | 79.2 | – | 137 | 103 | 128 | 12.3 | 116 | 117 | times less effective than tadalafil as PDE5 inhibitor ([17]; compared with tadalafil, human PDE5): over 300 |
| CN1CC(=O)N(Cc2cc3c(cc2Br)OCO3)[C@@H](Cc2c[nH]c3ccccc23)C1=O [Compound 7b, (S)-3-((1H-indol-3-yl)methyl)-4-((6-bromobenzo[d][1,3]dioxol-5-yl)methyl)-1-methylpiperazine-2,5-dione] | 88.8 | 46.6 | 57.3 | 39 ± 27 | 0.39 ± 0.36 | 99 | 58.7 | 64.4 | 36.3 | 78.4 | 144 | 142 | 124 | 131 | 13.1 | 96.6 | 103 | – |

The next lines start with results.

| IC50 ([1]; Homo sapiens, U2OS) [µM] | IC50 ([6]; Homo sapiens) [µM] | IC50 ([10]; Homo sapiens) [µM] | IC50 [17] [µM] | Ki [17] [µM] | IC50 ([11]; Homo sapiens) [µM] | IC50 ([12]; Homo sapiens, HCT-116, 72 h) [µM] | IC50 ([13]; Homo sapiens) [µM] | IC50 ([14]; Homo sapiens) [µM] | IC50 ([15]; Homo sapiens) [µM] | IC50 ([9]; Homo sapiens) [µM] | IC50 ([2]; Homo sapiens) [µM] | IC50 ([5]; Homo sapiens) [µM] | IC50 ([8]; Homo sapiens) [µM] | Structure (SMILES) | IC50 ([7]; Homo sapiens) [µM] | IC50 ([3]; Homo sapiens, MRC5) [µM] | IC50 ([4]; Homo sapiens, Fibroblast) [µM] | further results |
| --- | --- | --- | --- | --- | --- | --- | --- | --- | --- | --- | --- | --- | --- | --- | --- | --- | --- | --- |
| 93.5 | 104 | 146 | 137 ± 47 | 1.4 ± 0.8 | 153 | 102 | 83.2 | 53.2 | 120 | – | – | – | – | CN1CC(=O)N(Cc2ccc3c(c2)OCO3)[C@H](Cc2c[nH]c3ccccc23)C1=O [Compound 6a, (R)-3-((1H-indol-3-yl)methyl)-4-(benzo[d][1,3]dioxol-5-ylmethyl)-1-methylpiperazine-2,5-dione] | 10.5 | – | – | – |
| 88.3 | 112 | 87.6 | 260 ± 210 | 2.6 ± 2.7 | 151 | 83.7 | 143 | 54.1 | 93.5 | 128 | – | – | – | CN1CC(=O)N(Cc2ccc3c(c2)OCO3)[C@@H](Cc2c[nH]c3ccccc23)C1=O [Compound 6b, (S)-3-((1H-indol-3-yl)methyl)-4-(benzo[d][1,3]dioxol-5-ylmethyl)-1-methylpiperazine-2,5-dione] | 13 | 127 | 143 | – |
